The term IC50 denotes the concentration that inhibits the measured activity by half.

The text below walks through data of US20230242494A1, “MALONITRILE DERIVATIVES” (Hoffmann-La Roche Inc., priority 2020, published 2023).

This test deals with T1, human cGAS (residues 161-522) (Homo sapiens, UniProt Q8N884).
T1 construct: human cGAS (residues 161-522); made in house
T1 sequence (Q8N884 161-522): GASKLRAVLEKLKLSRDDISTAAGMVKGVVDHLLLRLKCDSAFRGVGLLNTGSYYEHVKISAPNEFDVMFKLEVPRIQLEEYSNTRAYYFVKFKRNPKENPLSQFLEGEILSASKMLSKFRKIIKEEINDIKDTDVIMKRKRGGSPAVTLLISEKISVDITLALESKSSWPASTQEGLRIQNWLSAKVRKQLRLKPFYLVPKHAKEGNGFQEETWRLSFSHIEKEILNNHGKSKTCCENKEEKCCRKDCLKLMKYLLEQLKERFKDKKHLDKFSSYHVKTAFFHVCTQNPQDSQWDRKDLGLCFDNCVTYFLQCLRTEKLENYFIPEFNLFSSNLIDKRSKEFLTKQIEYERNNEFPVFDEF
Description: cGAS Activity Assay—Malachite Green. The format is biochemical. The note with it: recombinant purified human cGAS 25 nM; 80 μM ATP, 80 μM GTP, 100 nM ISD; 4 hour at RT; phosphate detection by Malachite Green. The essentials: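 Human cGAS (161-522, 25 nM) in 20 mM TRIS pH 7.5, 5 mM MgCl2, 0.01% BSA with 80 μM ATP, 80 μM GTP and 100 nM ISD DNA, 4 h at RT. Pyrophosphate converted by PPase, phosphate read with Malachite Green at 620 nm; IC50 from 4-parameter fit of 16-point series.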
`Cc1oncc1/C(O)=C(\C#N)C(=O)Nc1ncc(OCC2CC2)c(-c2ccc(Cl)cc2)n1` [Example 125, (Z)-N-(4-(4-chlorophenyl)-5-(cyclopropylmethoxy)pyrimidin-2-yl)-2-cyano-3-hydroxy-3-(5-methylisoxazol-4-yl)acrylamide]: the concentration for half-maximal inhibition (IC50) amounted to 2910 nM.
For `COCCOc1cnc(NC(=O)/C(C#N)=C(\O)c2cnoc2C)nc1-c1ccccc1` [Example 126, (Z)-2-cyano-3-hydroxy-N-(5-(2-methoxyethoxy)-4-phenylpyrimidin-2-yl)-3-(5-methylisoxazol-4-yl)acrylamide], the IC50 stood at 420 nM.
Next, `Cc1oncc1/C(O)=C(\C#N)C(=O)Nc1ncc(OCC(F)(F)F)c(-c2ccc(Cl)cc2)n1` [Example 127, (Z)-N-(4-(4-chlorophenyl)-5-(2,2,2-trifluoroethoxy)pyrimidin-2-yl)-2-cyano-3-hydroxy-3-(5-methylisoxazol-4-yl)acrylamide]: 2340 nM; `COCCOc1cnc(NC(=O)/C(C#N)=C(\O)c2cnoc2C)nc1CCc1ccccc1` [Example 128, (Z)-2-cyano-3-hydroxy-N-(5-(2-methoxyethoxy)-4-phenethylpyrimidin-2-yl)-3-(5-methylisoxazol-4-yl)acrylamide]: 370 nM.
Next, `COc1cnc(NC(=O)/C(C#N)=C(\O)c2cnoc2C)nc1CCc1ccccc1` [Example 129, (Z)-2-cyano-3-hydroxy-N-(5-methoxy-4-phenethylpyrimidin-2-yl)-3-(5-methylisoxazol-4-yl)acrylamide]: 520 nM; `COc1ccc(CCc2cnc(NC(=O)/C(C#N)=C(\O)c3cnoc3C)nc2C(F)(F)F)cn1` [Example 130, (Z)-2-cyano-3-hydroxy-N-(5-(2-(6-methoxypyridin-3-yl)ethyl)-4-(trifluoromethyl)pyrimidin-2-yl)-3-(5-methylisoxazol-4-yl)acrylamide]: 1220 nM; `Cc1oncc1/C(O)=C(\C#N)C(=O)Nc1ncc(CCc2ccccc2)c(C(F)(F)F)n1` [Example 131, (Z)-2-cyano-3-hydroxy-3-(5-methylisoxazol-4-yl)-N-(5-phenethyl-4-(trifluoromethyl)pyrimidin-2-yl)acrylamide]: 2180 nM.
As for `Cc1oncc1/C(O)=C(\C#N)C(=O)Nc1ncc(C(=O)N(C)Cc2ccccc2)c(-c2ccccc2)n1` [Example 132, (Z)—N-Benzyl-2-(2-cyano-3-hydroxy-3-(5-methylisoxazol-4-yl)acrylamido)-N-methyl-4-phenylpyrimidine-5-carboxamide], the IC50 was determined as 190 nM.
Take `Cc1oncc1/C(O)=C(\C#N)C(=O)Nc1ncc(C(=O)N(C)Cc2ccccc2)c(CCc2ccccc2)n1` [Example 133, (Z)-N-benzyl-2-(2-cyano-3-hydroxy-3-(5-methylisoxazol-4-yl)acrylamido)-N-methyl-4-phenethylpyrimidine-5-carboxamide]: the 50% inhibitory concentration (IC50) is 1330 nM.
Next, `Cc1oncc1/C(O)=C(\C#N)C(=O)Nc1ncc(C(=O)N(C)c2ccccc2)c(CCc2ccccc2)n1` [Example 134, (Z)-2-(2-cyano-3-hydroxy-3-(5-methylisoxazol-4-yl)acrylamido)-N-methyl-4-phenethyl-N-phenylpyrimidine-5-carboxamide]: 1710 nM; `Cc1oncc1/C(O)=C(\C#N)C(=O)Nc1ncc(C(=O)N(C)c2ccccc2)c(-c2ccccc2)n1` [Example 135, (Z)-2-(2-cyano-3-hydroxy-3-(5-methylisoxazol-4-yl)acrylamido)-N-methyl-N,4-diphenylpyrimidine-5-carboxamide]: 570 nM; `Cc1oncc1/C(O)=C(\C#N)C(=O)Nc1ncc(S(C)(=O)=O)c(-c2cccc(Cl)c2)n1` [Example 136, (Z)—N-(4-(3-chlorophenyl)-5-(methylsulfonyl)pyrimidin-2-yl)-2-cyano-3-hydroxy-3-(5-methylisoxazol-4-yl)acrylamide]: 70 nM.
Next, `Cc1oncc1/C(O)=C(\C#N)C(=O)Nc1ncc(S(C)(=O)=O)c(-c2cccc(F)c2)n1` [Example 137, (Z)-2-cyano-N-(4-(3-fluorophenyl)-5-(methylsulfonyl)pyrimidin-2-yl)-3-hydroxy-3-(5-methylisoxazol-4-yl)acrylamide]: 60 nM; `Cc1oncc1/C(O)=C(\C#N)C(=O)Nc1ncc(S(C)(=O)=O)c(CCc2ccccc2)n1` [Example 138, (Z)-2-cyano-3-hydroxy-3-(5-methylisoxazol-4-yl)-N-(5-(methylsulfonyl)-4-phenethylpyrimidin-2-yl)acrylamide]: 200 nM.
Next, `Cc1oncc1/C(O)=C(\C#N)C(=O)Nc1ncc(S(=O)(=O)c2ccccc2)c(-c2cccc(F)c2)n1` [Example 139, (Z)-2-cyano-N-(4-(3-fluorophenyl)-5-(phenylsulfonyl)pyrimidin-2-yl)-3-hydroxy-3-(5-methylisoxazol-4-yl)acrylamide]: 60 nM; `Cc1oncc1/C(O)=C(\C#N)C(=O)Nc1ncc(S(C)(=O)=O)c(-c2ccccc2Cl)n1` [Example 140, (Z)-N-(4-(2-chlorophenyl)-5-(methylsulfonyl)pyrimidin-2-yl)-2-cyano-3-hydroxy-3-(5-methylisoxazol-4-yl)acrylamide]: 240 nM; `CCc1oncc1/C(O)=C(\C#N)C(=O)Nc1ccc(C(F)(F)F)cc1` [Example 141, (Z)-2-cyano-3-(5-ethylisoxazol-4-yl)-3-hydroxy-N-(4-(trifluoromethyl)phenyl)acrylamide]: 6450 nM.
`N#C/C(C(=O)Nc1ccc(C(F)(F)F)cc1)=C(/O)c1cnoc1` [Example 142, (Z)-2-cyano-3-hydroxy-3-(isoxazol-4-yl)-N-(4-(trifluoromethyl)phenyl)acrylamide]: the IC50 came to 5190 nM.
Turning to `Cc1oncc1/C(O)=C(\C#N)C(=O)Nc1cccc(CO)c1` [Example 143, (Z)-2-Cyano-3-hydroxy-N-[3-(hydroxymethyl)phenyl]-3-(5-methylisoxazol-4-yl)prop-2-enamide], the IC50 worked out at 960 nM.
Take `Cc1oncc1/C(O)=C(\C#N)C(=O)Nc1cccc(C(=O)O)c1` [Example 144, 3-[[(Z)-2-Cyano-3-hydroxy-3-(5-methylisoxazol-4-yl)prop-2-enoyl]amino]benzoic acid]: the concentration for half-maximal inhibition (IC50) came to 330 nM.
Next, `Cc1oncc1/C(O)=C(\C#N)C(=O)Nc1ccc(CC(=O)O)cc1` [Example 145, 2-[4-[[(Z)-2-Cyano-3-hydroxy-3-(5-methylisoxazol-4-yl)prop-2-enoyl]amino]phenyl]acetic acid]: 470 nM.
